Test results from patent publication US20190292603A1, “METHOD FOR PREDICTING THE RESPONSIVENESS OF A PATIENT TO A TREATMENT WITH mTOR INHIBITORS” (INSTITUT NATIONAL DE LA SANTE ET DE LA RECHERCHE MEDICALE, priority 2018, published 2019).

Tested on: Eμ-Myc-GAPDHlow lymphoma
Experiment: Survival of OxPhos Eμ-Myc-GAPDHlow-bearing mice treated with Temsirolimus in vivo
Conditions: data not shown

CO[C@H]1C[C@@H]2CC[C@@H](C)[C@@](O)(O2)C(=O)C(=O)N2CCCC[C@H]2C(=O)O[C@H]([C@H](C)C[C@@H]2CC[C@@H](OC(=O)C(C)(CO)CO)[C@H](OC)C2)CC(=O)[C@H](C)/C=C(\C)[C@@H](O)[C@@H](OC)C(=O)[C@H](C)C[C@H](C)/C=C/C=C/C=C/1C [Temsirolimus]
survival: significantly increases
